From patent US4536505A, “Certain N-(pyridyl) indoles” (Ciba-Geigy Corporation, priority 1983, dated 1985)

Experiments:
thromboxane synthetase = molecular target: T1, thromboxane synthetase (Homo sapiens, UniProt P24557); assay: in vitro inhibition of the thromboxane synthetase enzyme; format: biochemical, human (lysed human platelets); conditions: 30 minutes incubation; ratio T×B2/PGF2 α+β reduced to 50% of control
T1 construct: crude microsomal preparation of thromboxane synthetase from lysed human platelets; from tissue; host or cells: lysed human platelets, crude microsomal preparation
T1 sequence (P24557 1-533): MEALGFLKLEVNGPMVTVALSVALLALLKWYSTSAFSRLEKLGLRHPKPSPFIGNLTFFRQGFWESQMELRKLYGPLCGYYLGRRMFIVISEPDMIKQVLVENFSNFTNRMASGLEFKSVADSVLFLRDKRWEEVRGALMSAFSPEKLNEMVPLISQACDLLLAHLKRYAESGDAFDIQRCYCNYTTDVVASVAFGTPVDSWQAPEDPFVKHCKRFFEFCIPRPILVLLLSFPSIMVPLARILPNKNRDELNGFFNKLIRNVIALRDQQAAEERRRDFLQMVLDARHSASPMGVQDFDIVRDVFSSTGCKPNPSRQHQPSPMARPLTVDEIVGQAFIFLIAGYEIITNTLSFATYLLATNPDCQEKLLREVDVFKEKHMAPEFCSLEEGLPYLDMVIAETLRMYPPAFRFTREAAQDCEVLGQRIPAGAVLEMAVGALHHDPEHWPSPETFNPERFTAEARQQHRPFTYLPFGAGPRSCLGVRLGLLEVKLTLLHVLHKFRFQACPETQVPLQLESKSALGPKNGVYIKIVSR
Description: Res. Comm. 74, 1432 (1977); the testing procedure is as follows: ^14 C-Arachidonic acid is incubated with an enzyme consisting of solubilized and partially purified prostaglandin cyclo-oxygenase from sheep seminal vesicles and a crude microsomal preparation of thromboxane synthetase from lysed human platelets. The test compound (dissolved in buffer, or if necessary, in a small amount of ethanol) is added to the incubation medium. At the end of the incubation period (30 minutes), Prostaglandin E2 (PGE2) is reduced to a mixture of Prostaglandin F2 α and F2 β (PGF2 α+β) by addition of sodium borohydride. The radioactive products and excess substrate are extracted into ethyl acetate; the extract is evaporated to dryness; the residue is dissolved in acetone, spotted on thin-layer plates and chromatographed in the solvent system toluene:acetone:glacial acetic acid (100 volumes:100 volumes:3 volumes). The radioactive zones are located; those corresponding to Thromboxane B2 (T×B2) and PGF2 α+β are transferred to liquid scintillation vials and counted. The ratio of counts for T×B2 /PGF2 α+β is calculated for each concentration of test compound and IC50 values are determined graphically as the concentration of test compound at which the ratio of T×B2 /PGF2 α+β is reduced to 50% of the control value.

bleeding time in the rat = format: in vivo; conditions: about 1.0 mg/kg p.o.
Description: Indicative of the utility in thromboembolism, compounds of this invention also prolong bleeding time in the rat.

thromboxane B2 = assay: in vivo reduction of plasma levels of thromboxane (thromboxane B2) in rats after ionophore A23187; conditions: rat, oral dose of 0.04 mg/kg or lower
Description: (§1) The inhibition of the synthesis and the reduction of plasma levels of thromboxane is determined in vivo on administration to rats in the following manner (as adapted from the procedures described by Tai et al. in Anal. Biochem. 87:343, 1978 and by Salmon in Prostaglandins 15:383, 1978):
(§2) Rats are dosed with vehicle or test drug and injected intravenously with ionophore A23187 (0.5 mg/kg) two hours later. Blood is collected for analysis 2 minutes after the ionophore injection. A single aliquot of each plasma sample is assayed for thromboxane B2 and another aliquot for 6-keto-PGF1 α, the stable metabolites of thromboxane A2 and prostacyclin (PGI2) respectively, by radioimmunoassay.

prostacyclin = assay: in vivo plasma level of prostacyclin (6-keto-PGF1 α) in rats after ionophore A23187; conditions: rat, oral dose of 0.04 mg/kg or lower
Description: as §1, §2

[1] = molecular target: T2, prostaglandin cyclooxygenase (Ovis aries, UniProt P05979); assay: in-vitro effect on prostaglandin cyclooxygenase; format: biochemical, sheep (seminal vesicle microsomes); conditions: 50% reduction in the amount of PGE2 synthesized; read-out: IC50 for cyclooxygenase inhibition
T2 construct: Lyophilized sheep seminal vesicle microsomes are utilized as the prostaglandin-synthesizing enzyme preparation; from tissue; host or cells: lyophilized sheep seminal vesicle microsomes
T2 sequence (P05979 25-600): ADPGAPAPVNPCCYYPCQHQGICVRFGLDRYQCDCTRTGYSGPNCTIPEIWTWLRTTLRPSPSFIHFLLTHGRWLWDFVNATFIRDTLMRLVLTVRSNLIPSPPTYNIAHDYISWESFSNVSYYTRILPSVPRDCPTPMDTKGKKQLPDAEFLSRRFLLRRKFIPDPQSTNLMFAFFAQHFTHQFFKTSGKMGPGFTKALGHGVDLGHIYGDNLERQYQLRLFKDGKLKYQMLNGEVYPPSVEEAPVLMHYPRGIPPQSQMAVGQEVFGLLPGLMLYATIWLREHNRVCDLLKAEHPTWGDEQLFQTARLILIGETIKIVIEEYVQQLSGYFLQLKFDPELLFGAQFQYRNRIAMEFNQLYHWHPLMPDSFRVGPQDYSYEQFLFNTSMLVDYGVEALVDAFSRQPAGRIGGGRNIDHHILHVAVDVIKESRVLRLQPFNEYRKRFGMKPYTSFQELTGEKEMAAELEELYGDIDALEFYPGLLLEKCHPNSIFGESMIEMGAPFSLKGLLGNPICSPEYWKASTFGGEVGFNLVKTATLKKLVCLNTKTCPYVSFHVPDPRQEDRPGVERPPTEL
Description: The in-vitro effect on prostaglandin cyclooxygenase is measured by a modification of the method of Takeguchi et al. described in Biochemistry 10, 2372 (1971); the testing procedure is as follows:
Lyophilized sheep seminal vesicle microsomes are utilized as the prostaglandin-synthesizing enzyme preparation. The conversion of ^14 C-arachidonic acid to PGE2 is measured. Test compounds (dissolved in buffer, or if necessary, in a small amount of ethanol) are added to the incubation mixture. The prostaglandins are extracted and separated by thin-layer chromatography; the plates are scanned, the radioactive zones corresponding to PGE2 are transferred to liquid scintillation vials and counted for radioactivity. IC50 values for inhibition are determined graphically as the concentration of test compound causing a 50% reduction in the amount of PGE2 synthesized.

lipoxygenase = molecular target: T3, lipoxygenase (Cavia porcellus, UniProt A0A286X958); assay: lipoxygenase inhibition in guinea pig peritoneal neutrophils; format: cell-based; conditions: 14C-arachidonic acid (4 μM), A-23187 (2 μM), 37° C.; LTB4 and 5-HETE
T3 construct: Guinea pig peritoneal neutrophils; endogenous in cells; host or cells: guinea pig peritoneal neutrophils (elicited with sodium caseinate)
T3 sequence (A0A286X958 1-674): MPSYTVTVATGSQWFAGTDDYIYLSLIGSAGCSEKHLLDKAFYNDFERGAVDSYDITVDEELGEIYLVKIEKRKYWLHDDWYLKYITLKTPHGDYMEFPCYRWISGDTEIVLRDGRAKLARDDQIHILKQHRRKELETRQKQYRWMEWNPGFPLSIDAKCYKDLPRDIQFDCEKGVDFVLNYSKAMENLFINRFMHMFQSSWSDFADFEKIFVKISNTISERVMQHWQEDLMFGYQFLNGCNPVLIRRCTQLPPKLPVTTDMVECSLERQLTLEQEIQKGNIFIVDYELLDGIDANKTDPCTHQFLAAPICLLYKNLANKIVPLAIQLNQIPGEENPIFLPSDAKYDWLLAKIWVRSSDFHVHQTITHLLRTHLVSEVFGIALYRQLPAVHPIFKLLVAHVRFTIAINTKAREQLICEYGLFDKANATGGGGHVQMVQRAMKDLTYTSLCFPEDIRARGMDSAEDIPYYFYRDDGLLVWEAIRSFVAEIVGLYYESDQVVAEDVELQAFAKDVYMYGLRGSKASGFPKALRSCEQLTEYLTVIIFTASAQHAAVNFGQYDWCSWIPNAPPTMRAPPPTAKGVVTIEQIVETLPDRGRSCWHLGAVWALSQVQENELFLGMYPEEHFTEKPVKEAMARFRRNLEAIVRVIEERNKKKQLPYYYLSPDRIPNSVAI
Description: Guinea pig peritoneal neutrophils (elicited by an i.p. injection of sodium caseinate 17 hours prior to harvesting) are preincubated with indomethacin (1 μM) and test drugs for 5 minutes at 37° C. ^14 C-arachidonic acid (4 μM) and calcium ionophore A-23187 (2 μM) are added and the samples are incubated for another 5 minutes at 37° C. The reaction is terminated by the addition of 1N HCl and the products are extracted with ethyl acetate and separated by thin-layer chromatography; the plates are scanned and the radioactive zones corresponding to LTB4 and 5-HETE are scraped off, transferred to liquid scintillation vials and counted for radioactivity.

Compound | IC50 (thromboxane synthetase) [µM] | prolongation of bleeding time (bleeding time in the rat) | decrease of plasma concentration of thromboxane B2 (thromboxane B2) | increase in the plasma level of prostacyclin (prostacyclin) | IC50 [1] [µM] | IC50 (lipoxygenase) [µM]
O=C(O)CCCCCc1cn(-c2cccnc2)c2ccccc12 [3-(5-carboxypentyl)-N-(3-pyridyl)indole] | ~0.004 | – | – | – | – | –
O=C(O)CCCCc1cn(-c2cccnc2)c2ccccc12 [3-(4-carboxybutyl)-N-(3-pyridyl)indole] | ~0.0011 | prolongs bleeding time | over 50% | approximately 5 fold | > 1000 | –
O=C(O)CCCCc1cn(-c2cccnc2)c2ccc(Cl)cc12 [3-(4-carboxybutyl)-5-chloro-N-(3-pyridyl)indole] | ~0.0026 | – | – | – | – | ~30
